Test results reported in patent US20250042974A1, “LIPID MEDIATOR CHAPERONE AND USES THEREOF” (The Children's Medical Center Corporation, priority 2021, published 2025).

Columns and labels:
[1] = tested on: NF-κB; assay: TNFα-induced NF-κB luciferase reporter assay in HMEC; assay type: cell-based, human
Description: TNFα-dependent NF-κB signaling was determined by using an NFκB-Luciferase based reporter assay system (pGL4.32[luc2P/NF-κB-RE/Hygro]; Promega). A stable NFκB reporter cell line in human microvascular endothelial cells (HMEC-1; ATCC) was created. HMEC were maintained in 10% FCS/Pen-Strep MCDB media supplemented with 2 mM L-Glutamine (Sigma), EGF (2 ng/ml; R&D systems) and Hydrocortisone (1 ng/ml; Sigma). […] The 5×10^5 reporter cells were distributed to 12 well plates and allowed to adhere for 24 hours. Media was replaced with MCDB media supplemented with 1% FCS, L-Glutamine. […] Samples were extracted using cell lysis buffers (Promega), luciferin substrate was added and the plates were measured for […] at 470 nm for 8-15 minutes in a SpectraMax L 96-well plate reader (Molecular Devices).

[2] = tested on: HUVEC; assay: TEER analysis of endothelial barrier function; assay type: cell-based, human; settings: Iloprost 200 nM; HDL-S1P 100 nM S1P; AUY954 1 μM
Description: Transendothelial Electrical Resistance (TEER) was performed on HUVEC as described previously (Swendeman et al, 2017). Essentially, HUVECs were maintained in HUVEC Growth Medium (HGM; M199 medium supplemented with 10% FCS (Corning), 1:100 Pen-Strep (Sigma), 8 mM Glutamine (Sigma), Heparin (Sigma, 100 U, LMW) and Sheep Brain Extract prepared (REF). All cultures were maintained on Fibrobronectin (2 μg/ml) coated plates. For TEER analysis a 96 well ECIS system (96W10idf PET array, Applied BioPhysics) was employed. Wells were coated with Fibronectin (2 μg/ml) resuspended in saline for 30 minutes at room temp. HUVECs were harvested, resuspended in HGM at a cell density of 25-30×10^3 cells/well and allowed to adhere overnight. Prior to analysis, culture media was removed and replaced with M199 media supplemented with Pen-Strep/Glutamine and 1% FCS for 30 minutes. For stimulation studies, either Iloprost (Cayman Biochemicals) or Iloprost loaded onto ApoA1 or ApoA1-ApoM chaperones, or S1P prepared on ApoA1-ApoM or ApoM-Fc chaperones were added to cultures and TEER studies were performed from 3-24 hours.

[3] = tested on: human platelets; assay: Human platelet aggregation in vitro (light transmission aggregometry); assay type: cell-based; settings: SFLLRN peptide-induced, 2-20 nM drug, N=2, read-out: EC50 of inhibition of platelet aggregation
Description: Whole blood samples were drawn from healthy donors in the presence of 10% sodium citrate (Sigma, 5577-50 ml) and were spun at 1000 rpm using Beckman centrifuge (GS-6K) for 20 min. The top Platelet-rich Plasma (PRP) layer was collected resting at a 37° C. water bath for 30 minutes. PRP was diluted with the one-fifth volume of the acid-citrate-dextrose buffer, Prostaglandin E1 (PGE1) was added to a final concentration of 0.15 μM. The mixture was spun in a conical-bottom tube at 2000 g for 10 min, and the platelet pellet was collected and suspended in pre-warmed HEPES-Tyrode-Glucose Buffer (HTG). The platelet concentration was determined and adjusted to ˜2.5×10^5/μL with HTG on a Hematology cell counter System (Drew Scientific, 850FS).
Light Transmission Aggregometry was used to evaluate the platelet response to agonists and antagonists. In a 4-channel aggregometer (Platelet ionized calcium aggregometer, Chronolog Corp Model 660), human platelets were stirred in a cuvette at 37° C. […] Data were analyzed using AGGRO/LINK software package Ver 5.2.5 and Microsoft office professional plus 2013.

ApoA1: Purified Human ApoA1 (Sigma) [reference compound]
inhibition of TNFα-induced NF-κB activity at higher doses ([1]; 100-400 μg/ml, bi-phasic dose-response): not as inhibitory
inhibition of TNFα-induced NF-κB activity ([1]; low doses 25-50 μg/ml): ~25%

O=C(O)CCNCc1ccc2sc(-c3ccc(-c4ccccc4)c(C(F)(F)F)c3)cc2c1 [AUY954, reference compound]
endothelial barrier function in combination with Iloprost [2]: additive manner

CC#CCC(C)[C@H](O)/C=C/[C@@H]1[C@H]2C/C(=C/CCCC(=O)O)C[C@H]2C[C@H]1O (stereo partly shown) [Iloprost]
EC50 [3]: ~11 nM
